Measurements as given in PubChem BioAssay (NCI).
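Five compound concentrations were applied to cells in 96-well plates for 48 hours; endpoints were derived by simple linear interpolation of the resulting dose-response curve. GI50 is the concentration that inhibits growth by half. TGI denotes the concentration required for complete inhibition of growth.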

Key:
Assay in all cases: inhibition of tumour cell growth, NCI panel, 48 h
CAKI-1 renal = system: CAKI-1 renal
HCC-2998 colon = system: HCC-2998 colon
HCT-15 colon = system: HCT-15 colon
MDA-MB-435 = system: MDA-MB-435
MOLT-4 leukemia = system: MOLT-4 leukemia
SF-268 CNS = system: SF-268 CNS
SK-OV-3 ovarian = system: SK-OV-3 ovarian
SR leukemia = system: SR leukemia
TK-10 renal = system: TK-10 renal
U251 CNS = system: U251 CNS

SMILES | GI50 (CAKI-1 renal) [µM] | TGI (CAKI-1 renal) [µM] | GI50 (HCC-2998 colon) [µM] | TGI (HCC-2998 colon) [µM] | GI50 (HCT-15 colon) [µM] | TGI (HCT-15 colon) [µM] | GI50 (MDA-MB-435) [µM] | TGI (MDA-MB-435) [µM] | GI50 (MOLT-4 leukemia) [µM] | TGI (MOLT-4 leukemia) [µM] | GI50 (SF-268 CNS) [µM] | TGI (SF-268 CNS) [µM] | GI50 (SK-OV-3 ovarian) [µM] | TGI (SK-OV-3 ovarian) [µM] | GI50 (SR leukemia) [µM] | TGI (SR leukemia) [µM] | GI50 (TK-10 renal) [µM] | TGI (TK-10 renal) [µM] | GI50 (U251 CNS) [µM] | TGI (U251 CNS) [µM]
NC(=O)c1cc([N+](=O)[O-])c(Cl)c([N+](=O)[O-])c1 | 2.59 | 7.12 | 2.61 | 7.46 | 1.98 | 3.92 | 5.99 | 19.2 | 2.62 | 5.68 | 4.66 | 16.2 | 16.9 | 30.6 | 1.89 | > 100 | 1.91 | 3.36 | 2.31 | 5.61
COc1ccn2c(C(C)=O)cc(C(=O)c3ccc4c(c3)Sc3ccccc3N4)c2c1 | 0.0527 | > 100 | 0.155 | > 47.8 | 0.0982 |  | 0.019 | 0.0454 | 0.155 | > 100 | 0.141 | > 100 | 0.124 | > 23.5 | 0.0567 | > 100 | 0.34 | > 100 | 0.132 | > 100
NC1=C(Br)C(=O)c2ncccc2C1=O |  | 2.84 |  | 2.61 |  | 1.65 | 0.168 | 0.313 |  | 4.83 |  | 1.92 |  | 3.24 |  | 1.84 |  | 5.81 |  | 0.671
COC(=O)c1cc(-c2cc(OC)c(OC)c(OC)c2)[nH]c1N/N=C/c1c(Cl)cccc1Cl | 1.61 | 11.4 | 2.36 | 18.4 | 16 | > 100 | 0.247 | 8.61 | 9.27 | > 56.3 | 1.35 | 11.2 | 3.07 | 13.3 | 0.926 | > 100 | 0.528 | 2.68 | 2.17 | 10.1
O=C(/C=C/c1cccs1)c1ccc(Nc2nc(Nc3ccc(F)cc3)nc(Nc3ccc(F)cc3)n2)cc1 | 38.1 | > 100 | 15.8 | > 100 | 37.4 | > 100 | 24.5 | 67.6 | 29.1 | > 100 | 30.2 | > 100 | 56 | > 100 | 14.7 | 60.1 | 40.4 | > 100 | 18.3 | 35.4
Cc1ccc2c(c1C)-c1c(ccc(C)c1C)C(=O)C2=O |  | 7.84 |  | 18 |  | 11 |  | 0.619 |  | 0.686 |  | 5.38 |  | 8.41 |  | 0.56 |  | 9.11 |  | 12.8
O=C1/C(=C/c2ccc([N+](=O)[O-])o2)Oc2ccc(Br)cc21 | 2.31 | 6.59 | 8.01 | 27.5 | 2.62 | 8.36 | 1.9 | 4.03 | 3.07 | 9.4 | 2.04 | 4.16 | 17.6 | 32.2 | 0.77 | 5.52 | 2.11 | 3.88 | 14.9 | 28.7
